Experimental data taken from PMC7018972, “Novel and selective inactivators of Triosephosphate isomerase with anti-trematode activity” (Scientific Reports, 2020).

target: Fasciola hepatica TIM (FhTIM) (Fasciola hepatica, UniProt S4UI50); assay: Inhibition of recombinant FhTIM, coupled enzyme assay; assay type: biochemical; conditions: Figure 1, ranges of inhibitory activity; read-out: IC50 range
Method: Expression and purification of proteins: FhTIM, RabbitTIM and HsTIM were expressed in Escherichia coli and purified as described in the literature[31],[37]. […] Before use, extensive dialysis against 100 mM triethanolamine/10 mM EDTA (pH 7.4) was performed. […] Enzymatic activity was determined following the conversion of glyceraldehydes-3-phosphate into dihydroxyacetone phosphate in a coupled enzyme assay. The decrease in absorbance at 340 nm was followed in a multiplate reader VarioskanTM Flash Multimode Reader (Thermo ScientificTM, Waltham, MA, USA) at 38 °C. The reaction mixture (1 mL, pH 7.4) contained 100 mM triethanolamine, 10 mM EDTA, 0.2 mM NADH, 1 mM glyceraldehydes-3-phosphate and 0.9 units of α-glycerol phosphate dehydrogenase. The reaction was initiated by the addition of 5 ng/mL of the TIM of interest. For the inhibition studies, TIM was incubated at a concentration of 5 mg/mL in a buffer containing 100 mM triethanolamine, 10 mM EDTA, pH 7.4 and 10% of DMSO at 37 °C for 1 h. The mixture also contained the compounds, dissolved in DMSO, at the indicated concentrations. After 1 h, 10 µL were withdrawn and added to a final volume of 100 µL of the reaction mixture for the activity assay. The inhibition assay was performed in a 96-well microplate. […] The experiments were performed in triplicate in two independent experiments.

Fasciola hepatica TIM (FhTIM), sequence (S4UI50 entry or part of it): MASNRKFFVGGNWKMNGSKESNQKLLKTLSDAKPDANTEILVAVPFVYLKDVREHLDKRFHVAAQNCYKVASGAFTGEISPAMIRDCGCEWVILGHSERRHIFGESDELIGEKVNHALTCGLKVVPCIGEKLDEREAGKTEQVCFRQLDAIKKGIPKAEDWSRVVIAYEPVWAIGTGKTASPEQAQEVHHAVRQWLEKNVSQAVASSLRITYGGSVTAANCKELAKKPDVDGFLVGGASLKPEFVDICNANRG

Row | Structure (SMILES) | IC50 [µM]
1 | CN(C)Cc1ccccc1Cn1nc(O)c2cc([N+](=O)[O-])ccc21 [Compound 482] | < 50

same assay, conditions: Table 1S, screening of 340 compounds in FhTIM; table head prints no unit, µM per b8/b9; read-out: IC50

Row | Structure (SMILES) | IC50 [µM]
2 | C=CCn1c(-c2ccccc2)csc1=NN=Cc1ccco1 [Compound 1109] | > 100
3 | Cc1ccc2c(c1)=[N+]([O-])C(C)(C)[N+]=2[O-] [Compound 109] | > 100
4 | O=C(O)c1csc(=NN=CC=CC=Cc2cccs2)n1-c1ccccc1 [Compound 1136] | > 100
5 | C=CCn1c(C)csc1=NN=Cc1ccco1 [Compound 1110] | > 100
6 | O=C1CSC(=NN=C/C=C/C=C/c2cccs2)N1c1ccccc1 [Compound 313] | > 100
7 | Nc1nc(-c2ccccc2)cs1 [Compound 810] | > 100
8 | C(=Cc1ccccc1)CCN1CCN(CCC=Cc2ccccc2)CC1 [Compound 1119] | > 100
9 | [O-][n+]1onc(-c2ccccc2)c1CN1CCOCC1 [Compound 352] | > 100
10 | O=C(CBr)c1csc(=NN=Cc2ccccc2)n1-c1ccccc1 [Compound 775] | > 100
11 | CN1CC(=CC=Cc2cccs2)C(=O)C(=CC=Cc2cccs2)C1 [Compound 1285] | > 100
12 | ON=Cc1ccc(O)cc1 [Compound 1113] | > 100
13 | C=CCNC(=S)NN=Cc1ccc(Cl)cc1 [Compound 261] | > 100
14 | C=CCn1c(-c2csc(=NN=Cc3cccs3)n2CC=C)csc1=NN=Cc1cccs1 [Compound 288] | > 100
15 | S=C(NN=C/C=C/c1ccco1)Nc1ccccc1 [Compound 277] | > 100
16 | COc1nn(CCCCCN(C)C)c2ccc([N+](=O)[O-])cc12 [Compound 469] | > 100
17 | C=CCNc1nnc(-c2ccc([N+](=O)[O-])s2)s1 [Compound 292] | > 100
18 | C=CCn1c(-c2ccccc2)csc1=NN=Cc1cccs1 [Compound 272] | > 100
19 | O=[N+]([O-])c1c(Cl)cc2c(no[n+]2[O-])c1N1CCN(c2c([N+](=O)[O-])c(Cl)cc3c2no[n+]3[O-])CC1 [Compound 704] | > 100
20 | O=C(O)c1ccc(Cl)[n+]([O-])c1 [Compound 472] | > 100
21 | Cc1csc(=NN=Cc2cccs2)n1-c1ccccc1 [Compound 1103] | > 100
22 | C=CCn1c(C(=O)O)csc1=NN=C/C=C/c1ccc(C)o1 [Compound 789] | > 100
23 | C(=Cc1ccco1)C=NN1CCN(Cc2ccccc2)CC1 [Compound 874] | > 100
24 | C=CCNC(=S)NN=CC=Cc1ccc(C)o1 [Compound 263] | > 100

Row | Structure (SMILES) | IC50 [µM]
25 | Nc1ccc([N+](=O)[O-])cc1 [Compound 1196] | > 100
26 | O=[N+]([O-])c1ccc2c(c1)c(OCc1ccccc1)nn2CCCCCN1CCN(CC=Cc2ccccc2)CC1 [Compound 505] | > 100
27 | C=CCn1c(-c2ccccc2)csc1=NN=Cc1ccc(S(=O)(=O)O)o1 [Compound 876] | > 100
28 | CCN(CC)CCCNS(=O)(=O)NCCCN(CC)CC [Compound 125] | > 100
29 | COc1ccc(NC(=O)CCl)cc1 [Compound 379] | > 100
30 | N#Cc1c2ccccc2[n+]([O-])n1-c1ccc(Cl)cc1 [Compound 480] | > 100
31 | NC(N)=N/N=C/c1ccc(O)cc1 [Compound 675] | 50 to 100
32 | O=S(=O)(O)c1ccc(C=NN=c2scc(-c3csc(=NN=Cc4ccccc4)n3-c3ccccc3)n2-c2ccccc2)o1 [Compound 784] | > 100
33 | C=CCn1c(C(=O)CN2CCN(Cc3ccccc3)CC2)csc1=NN=CC=Cc1ccco1 [Compound 1114] | > 100
34 | CCOC(=O)c1nc2ccc([N+](=O)[O-])cc2n1O [Compound 546] | > 100
35 | C=CCNC(=S)NN=Cc1ccc2ccccc2c1 [Compound 296] | > 100
36 | NNC(=O)Nc1ccc(Cl)cc1 [Compound 397] | > 100
37 | C(=Cc1ccco1)C=NN1CCN(CC=Cc2ccccc2)CC1 [Compound 912] | > 100
38 | O=C(/C=C/c1ccc([N+](=O)[O-])o1)N1CCN(C/C=C/c2ccccc2)CC1 [Compound 51] | > 100
39 | C(=Cc1ccco1)C=NN=CC=Cc1ccco1 [Compound 1140] | > 100
40 | Cc1nnc[n+]([O-])c1CC(c1ccc([N+](=O)[O-])cc1)N1CCOCC1 (stereo not shown) [Compound 360] | > 100
41 | NNC(=O)c1ccccn1 [Compound 717] | > 100
42 | O=c1cc(-c2ccccc2)oc2ccccc12 [Compound 148] | > 100
43 | C=CCN(C(C)=O)C1=NNC(c2cccs2)S1 (stereo not shown) [Compound 286] | > 100
44 | C=CCn1c(-c2ccc(Cl)cc2)csc1=NN=C/C=C/C=C/c1cccs1 [Compound 311] | 50 to 100
45 | S=C(NN=Cc1ccccc1)Nc1ccccc1 [Compound 278] | > 100
46 | C=CCn1c(-c2ccc(Br)cc2)csc1=NN=C(C)C1CCC2C3CC=C4CC(O)CCC4(C)C3CCC12C (stereo not shown) [Compound 1272] | > 100
47 | NS(=O)(=O)NCc1ccccc1 [Compound 124] | > 100

Row | Structure (SMILES) | IC50 [µM]
48 | Cc1csc(=NN=CC=Cc2ccco2)n1-c1ccccc1 [Compound 1131] | > 100
49 | C=CCNC(=S)NN=Cc1ccc(C)o1 [Compound 788] | > 100
50 | C=CCn1c(-c2ccccc2)csc1=NN=Cc1ccc([N+](=O)[O-])s1 [Compound 147] | > 100
51 | O=[N+]([O-])c1ccc2c(c1)c(OCc1ccccc1)nn2CCCCCBr [Compound 518] | 100
52 | C=CCn1c(C(=O)NN2CCOCC2)csc1=NN=CC=Cc1ccco1 [Compound 1124] | > 100
53 | C=CCn1c(C(=O)N2CCN(Cc3ccccc3)CC2)csc1=NN=CC=Cc1ccco1 [Compound 1117] | > 100
54 | C=CCNC(=S)NN=Cc1ccco1 [Compound 69] | > 100
55 | O=C1C(=C2Nc3ccccc3C2=O)Nc2ccccc21 [Compound 879] | > 100
56 | O=C1C(=Cc2ccc([N+](=O)[O-])s2)C(=O)N(C2CCCCC2)S(=O)(=O)N1C1CCCCC1 [Compound 113] | > 100
57 | Cc1ccc2c(c1)nc(-c1ccc(N(C)C)cc1)n2CCc1ccccc1 [Compound 696] | > 100
58 | C=CCN1C(=O)CSC1=NN=CC=CC=Cc1cccs1 [Compound 312] | > 100
59 | ON=Cc1ccc(Br)cc1 [Compound 1107] | > 100
60 | CC1(C)[N+]([O-])=c2ccc(Cl)cc2=[N+]1[O-] [Compound 532] | 50 to 100
61 | [O-][n+]1onc2ccc(C=NNC(=S)Nc3ccccc3)cc21 [Compound 41] | > 100
62 | C=CCNC(=S)NN=Cc1ccsc1 [Compound 911] | > 100
63 | [O-][n+]1onc2ccccc21 [Compound 1197] | > 100
64 | N#CSCC(=O)c1ccccc1 [Compound 811] | > 100
65 | S=C(NN=CC=CC=Cc1cccs1)Nc1ccccc1 [Compound 310] | 50 to 100
66 | NC1=NS(=O)(=O)N(CCC2CCCCC2)c2nc(-c3ccc(F)cc3)[nH]c21 [Compound 706] | > 100
67 | C=CCn1c(C)csc1=NN=CC=Cc1cccs1 [Compound 1128] | > 100
68 | CCCCN1C(=O)C(=Cc2ccc([N+](=O)[O-])cc2)C(=O)N(CCCC)S1(=O)=O [Compound 1165] | > 100
69 | Cc1ccc(-n2c(C#N)c3ccccc3[n+]2[O-])cc1 [Compound 476] | > 100
70 | O=[N+]([O-])c1ccc(C=NN=c2[nH]c(-c3ccc(Cl)cc3)cs2)s1 [Compound 267] | > 100

same assay, conditions: recombinant FhTIM, 1 h incubation with compound at 37 °C; read-out: IC50

Row | Structure (SMILES) | IC50 [µM]
71 | Nc1ccc2nc3ccc(F)cc3nc2c1 [Compound 1149] | 50 ± 6
72 | CN(C)Cc1ccccc1Cn1nc(O)c2cc([N+](=O)[O-])ccc21 [Compound 482] | 30 ± 3
73 | S=C(NN=CC=CC=Cc1cccs1)Nc1ccccc1 [Compound 310] | 79 ± 7
